Source: ChEMBL document CHEMBL6121059, “Small Molecule Modulators of AMP-Activated Protein Kinase (AMPK) Activity and Their Potential in Cancer Therapy” (J Med Chem, 2025)
Blank lines part the entries; values can stand above or below the compound they belong to.

How the values were obtained:
[1] = target: 5'-AMP-activated protein kinase catalytic subunit alpha-1 (Homo sapiens, UniProt Q13131); assay: Inhibition of AMPKalpha1 (unknown origin)
[2] = target: Serine/threonine-protein kinase PAK 1 (Homo sapiens) (UniProt Q13153); assay: Activation of PAK1 (unknown origin) at 10 uM relative to control
[3] = target: Serine/threonine-protein kinase N1 (Homo sapiens) (UniProt Q16512); assay: Activation of PRK1 (unknown origin) at 10 uM relative to control
[4] = target: Epithelial discoidin domain-containing receptor 1 (Homo sapiens) (UniProt Q08345); assay: Inhibition of DDR1 (unknown origin) at 10 uM relative to control
[5] = target: Leucine-rich repeat serine/threonine-protein kinase 2 (Homo sapiens) (UniProt Q5S007); assay: Activation of LRRK2 (unknown origin) at 10 uM relative to control
[6] = target: T1, TGF-beta receptor type-1 (Homo sapiens) (UniProt P36897); assay: Inhibition of ALK5 (unknown origin) at 10 uM relative to control
T1 sequence (whole entry): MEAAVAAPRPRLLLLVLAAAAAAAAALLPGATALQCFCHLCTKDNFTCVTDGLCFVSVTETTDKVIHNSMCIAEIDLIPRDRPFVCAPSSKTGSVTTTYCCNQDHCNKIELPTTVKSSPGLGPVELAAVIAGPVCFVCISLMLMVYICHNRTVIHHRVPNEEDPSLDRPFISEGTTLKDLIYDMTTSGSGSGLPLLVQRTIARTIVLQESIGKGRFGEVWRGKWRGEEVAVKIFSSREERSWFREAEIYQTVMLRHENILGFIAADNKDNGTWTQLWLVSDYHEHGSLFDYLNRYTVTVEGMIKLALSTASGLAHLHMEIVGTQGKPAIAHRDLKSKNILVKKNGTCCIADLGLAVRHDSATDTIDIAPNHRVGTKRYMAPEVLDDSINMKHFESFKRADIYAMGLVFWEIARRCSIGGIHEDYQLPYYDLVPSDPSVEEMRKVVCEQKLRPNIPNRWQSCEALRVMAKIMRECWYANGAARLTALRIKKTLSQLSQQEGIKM

Homo sapiens = species: Homo sapiens; assay: Inhibition of SRC (unknown origin) at 10 uM relative to control
COLO 320 = assay: Inhibition of cellular AMPK in human COLO 320 cells assessed as reduction in pACC1 levels in cell lysates by HTRF assay
[7] = Inhibition of full length GST-tagged human AMPKalpha2/beta1/gamma1 using HMRSAMSFAEPG biotinylated peptide as substrate in presence of 2 mM ATP by TR-FRET assay
[8] = Inhibition of full length GST-tagged human AMPKalpha2/beta1/gamma1 using HMRSAMSFAEPG biotinylated peptide as substrate in presence of 10 uM ATP by TR-FRET assay
VCaP = assay: Antiproliferative activity against human VCaP cells assessed as reduction in cell viability incubated for 3 days by cell-titer glo assay; assay type: functional, cell-based; conditions: 72 h
IMR-32 = assay: Inhibition of cellular AMPK in human IMR-32 cells assessed as reduction in pACC1 levels in cell lysates by HTRF assay
LNCaP = assay: Inhibition of cellular AMPK in human LNCaP cells assessed as reduction in pACC1 levels in cell lysates by HTRF assay
[9] = Inhibition of AMPK (unknown origin); parameters: species or system Homo sapiens
[10] = Binding affinity to AMPK (unknown origin) assessed as inhibition constant; parameters: species or system Homo sapiens

5'-AMP-activated protein kinase catalytic subunit alpha-1, sequence (Q13131 whole entry): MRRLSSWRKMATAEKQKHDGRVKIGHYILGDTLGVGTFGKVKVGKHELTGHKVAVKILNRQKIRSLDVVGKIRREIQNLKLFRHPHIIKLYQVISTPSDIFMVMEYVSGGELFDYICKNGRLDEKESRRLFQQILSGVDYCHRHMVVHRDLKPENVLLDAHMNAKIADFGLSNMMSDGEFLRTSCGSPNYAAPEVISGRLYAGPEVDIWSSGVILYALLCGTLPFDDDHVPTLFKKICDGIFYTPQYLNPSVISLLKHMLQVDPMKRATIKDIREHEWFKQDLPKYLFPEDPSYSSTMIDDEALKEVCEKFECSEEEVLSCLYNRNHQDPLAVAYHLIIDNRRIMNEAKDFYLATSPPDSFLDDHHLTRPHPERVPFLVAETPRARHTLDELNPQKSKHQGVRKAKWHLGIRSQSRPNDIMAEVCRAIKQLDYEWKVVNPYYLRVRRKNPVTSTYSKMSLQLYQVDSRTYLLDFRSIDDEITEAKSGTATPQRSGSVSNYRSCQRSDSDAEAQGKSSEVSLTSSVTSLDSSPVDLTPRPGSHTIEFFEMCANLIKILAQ
Serine/threonine-protein kinase N1 (Homo sapiens), sequence (Q16512 2-942 limits assumed): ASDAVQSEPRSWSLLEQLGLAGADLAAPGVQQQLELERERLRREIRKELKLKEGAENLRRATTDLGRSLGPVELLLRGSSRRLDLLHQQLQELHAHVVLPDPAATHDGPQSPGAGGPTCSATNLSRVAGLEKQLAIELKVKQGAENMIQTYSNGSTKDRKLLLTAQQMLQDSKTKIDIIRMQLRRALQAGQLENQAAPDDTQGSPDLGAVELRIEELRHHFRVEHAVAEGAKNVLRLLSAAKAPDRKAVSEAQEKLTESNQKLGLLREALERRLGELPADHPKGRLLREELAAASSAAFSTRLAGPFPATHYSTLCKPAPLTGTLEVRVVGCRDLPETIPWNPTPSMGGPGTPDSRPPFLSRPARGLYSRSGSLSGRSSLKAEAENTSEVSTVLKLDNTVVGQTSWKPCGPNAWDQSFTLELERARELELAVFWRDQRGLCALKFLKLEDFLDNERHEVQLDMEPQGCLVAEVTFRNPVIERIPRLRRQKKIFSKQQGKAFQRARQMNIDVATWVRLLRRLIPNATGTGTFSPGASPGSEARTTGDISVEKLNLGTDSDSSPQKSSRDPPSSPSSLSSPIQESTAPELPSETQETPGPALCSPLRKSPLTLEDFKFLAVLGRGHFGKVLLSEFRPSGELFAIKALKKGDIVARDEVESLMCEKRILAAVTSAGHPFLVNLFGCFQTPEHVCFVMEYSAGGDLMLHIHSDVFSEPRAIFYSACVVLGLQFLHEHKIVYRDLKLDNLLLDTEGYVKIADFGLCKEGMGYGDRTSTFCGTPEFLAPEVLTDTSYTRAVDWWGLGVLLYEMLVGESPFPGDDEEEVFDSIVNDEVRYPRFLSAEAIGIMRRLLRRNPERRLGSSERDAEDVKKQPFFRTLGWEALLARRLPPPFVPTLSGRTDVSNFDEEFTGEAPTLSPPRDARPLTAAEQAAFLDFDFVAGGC
Leucine-rich repeat serine/threonine-protein kinase 2 (Homo sapiens), sequence (Q5S007 whole entry): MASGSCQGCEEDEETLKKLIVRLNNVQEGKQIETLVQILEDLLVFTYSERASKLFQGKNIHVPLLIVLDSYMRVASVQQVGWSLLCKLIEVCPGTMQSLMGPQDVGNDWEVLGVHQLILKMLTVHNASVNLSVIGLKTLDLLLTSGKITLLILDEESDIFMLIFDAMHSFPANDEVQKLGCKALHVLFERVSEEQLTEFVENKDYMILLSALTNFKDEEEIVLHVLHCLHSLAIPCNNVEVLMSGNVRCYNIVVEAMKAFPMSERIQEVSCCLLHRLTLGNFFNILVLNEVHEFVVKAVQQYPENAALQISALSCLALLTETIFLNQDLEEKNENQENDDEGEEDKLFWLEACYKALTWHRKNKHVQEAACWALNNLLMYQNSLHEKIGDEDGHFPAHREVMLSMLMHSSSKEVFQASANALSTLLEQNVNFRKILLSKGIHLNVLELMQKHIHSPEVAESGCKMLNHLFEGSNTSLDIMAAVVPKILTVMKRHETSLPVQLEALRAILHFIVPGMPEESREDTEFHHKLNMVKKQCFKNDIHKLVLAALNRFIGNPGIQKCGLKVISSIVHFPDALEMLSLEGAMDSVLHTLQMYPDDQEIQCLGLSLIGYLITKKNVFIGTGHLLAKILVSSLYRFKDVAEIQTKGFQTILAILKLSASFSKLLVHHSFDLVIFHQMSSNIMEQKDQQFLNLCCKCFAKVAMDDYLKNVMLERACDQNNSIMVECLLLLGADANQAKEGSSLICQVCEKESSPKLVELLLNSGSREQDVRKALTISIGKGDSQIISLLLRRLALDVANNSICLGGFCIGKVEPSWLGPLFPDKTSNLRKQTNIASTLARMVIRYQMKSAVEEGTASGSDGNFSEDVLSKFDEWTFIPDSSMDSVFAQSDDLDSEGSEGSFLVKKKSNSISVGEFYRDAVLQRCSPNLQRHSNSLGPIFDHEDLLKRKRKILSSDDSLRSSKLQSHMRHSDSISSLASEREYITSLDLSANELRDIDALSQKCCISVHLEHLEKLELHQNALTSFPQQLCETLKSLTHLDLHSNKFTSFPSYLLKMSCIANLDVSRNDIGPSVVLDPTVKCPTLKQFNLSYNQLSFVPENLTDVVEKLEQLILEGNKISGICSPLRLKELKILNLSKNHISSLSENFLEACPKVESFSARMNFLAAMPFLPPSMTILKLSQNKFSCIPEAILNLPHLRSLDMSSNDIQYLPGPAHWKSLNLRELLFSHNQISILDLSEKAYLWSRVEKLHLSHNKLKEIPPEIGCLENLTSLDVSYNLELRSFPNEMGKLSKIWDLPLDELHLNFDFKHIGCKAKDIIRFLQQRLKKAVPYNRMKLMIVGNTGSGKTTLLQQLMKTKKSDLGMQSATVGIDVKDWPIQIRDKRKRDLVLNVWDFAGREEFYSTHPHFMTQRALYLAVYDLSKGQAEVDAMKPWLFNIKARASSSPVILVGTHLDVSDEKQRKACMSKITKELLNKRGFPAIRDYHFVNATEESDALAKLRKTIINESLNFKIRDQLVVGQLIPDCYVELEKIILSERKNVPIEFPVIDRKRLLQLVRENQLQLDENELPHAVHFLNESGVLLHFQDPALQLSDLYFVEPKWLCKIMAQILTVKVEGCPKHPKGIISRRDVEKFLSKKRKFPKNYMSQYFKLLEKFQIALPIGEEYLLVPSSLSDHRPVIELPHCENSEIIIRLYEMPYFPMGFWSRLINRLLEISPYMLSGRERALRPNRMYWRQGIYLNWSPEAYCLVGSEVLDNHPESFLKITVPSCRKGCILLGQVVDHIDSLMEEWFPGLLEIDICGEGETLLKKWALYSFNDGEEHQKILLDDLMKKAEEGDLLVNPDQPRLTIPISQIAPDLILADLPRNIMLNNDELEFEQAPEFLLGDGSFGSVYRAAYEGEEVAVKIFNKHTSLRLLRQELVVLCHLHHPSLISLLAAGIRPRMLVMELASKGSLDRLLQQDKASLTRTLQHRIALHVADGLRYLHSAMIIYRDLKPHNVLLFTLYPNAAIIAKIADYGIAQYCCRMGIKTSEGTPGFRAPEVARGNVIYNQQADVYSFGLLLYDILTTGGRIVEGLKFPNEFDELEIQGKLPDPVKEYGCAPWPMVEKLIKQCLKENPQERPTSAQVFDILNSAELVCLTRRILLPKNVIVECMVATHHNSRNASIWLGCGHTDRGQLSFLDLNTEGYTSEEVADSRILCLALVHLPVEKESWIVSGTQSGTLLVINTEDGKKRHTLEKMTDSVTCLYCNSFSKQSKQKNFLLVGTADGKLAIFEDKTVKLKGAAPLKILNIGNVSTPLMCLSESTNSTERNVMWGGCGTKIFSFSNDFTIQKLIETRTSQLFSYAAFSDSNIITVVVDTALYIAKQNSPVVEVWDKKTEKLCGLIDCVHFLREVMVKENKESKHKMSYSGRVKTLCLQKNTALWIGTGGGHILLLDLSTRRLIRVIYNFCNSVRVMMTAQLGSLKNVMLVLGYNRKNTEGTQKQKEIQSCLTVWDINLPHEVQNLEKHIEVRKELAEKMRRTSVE
Serine/threonine-protein kinase PAK 1 (Homo sapiens), sequence (Q13153 whole entry, looked up): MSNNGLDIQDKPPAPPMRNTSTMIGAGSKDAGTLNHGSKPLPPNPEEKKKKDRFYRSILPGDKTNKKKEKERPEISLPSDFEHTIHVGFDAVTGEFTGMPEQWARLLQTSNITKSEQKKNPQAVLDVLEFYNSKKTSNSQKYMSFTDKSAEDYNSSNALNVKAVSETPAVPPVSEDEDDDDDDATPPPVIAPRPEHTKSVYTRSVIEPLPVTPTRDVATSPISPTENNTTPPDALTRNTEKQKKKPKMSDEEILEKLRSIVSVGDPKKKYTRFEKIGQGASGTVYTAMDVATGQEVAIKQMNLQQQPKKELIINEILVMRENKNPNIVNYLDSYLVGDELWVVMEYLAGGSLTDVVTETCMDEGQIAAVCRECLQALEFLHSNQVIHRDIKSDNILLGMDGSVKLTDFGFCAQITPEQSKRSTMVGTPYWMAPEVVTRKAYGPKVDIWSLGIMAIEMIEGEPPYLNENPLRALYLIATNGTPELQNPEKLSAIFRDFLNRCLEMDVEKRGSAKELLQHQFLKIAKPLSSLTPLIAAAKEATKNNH

IC50 [1]: 400 nM
SMILES: CNC(=O)c1ccccc1Oc1nc(Nc2cc(OC)c(OC)c(OC)c2)ncc1Br

activation [2]: 30% | activation [3]: 30% | inhibition [4]: > 50% | activation [5]: 30% | inhibition [6]: > 50% | inhibition (Homo sapiens): > 50%
SMILES: O=C(O)Cc1csc(Nc2ccc(C(F)(F)F)cc2)n1

IC50 (COLO 320): ~400 nM | IC50 [7]: 15 nM | IC50 [8]: 1.4 nM | IC50 (VCaP): ~100 nM | IC50 (IMR-32): ~150 nM | IC50 (LNCaP): ~100 nM
SMILES: CCc1ccccc1C(=O)Nc1n[nH]c2c(C)c(F)c(C3C(C#N)=C(C)N(C)C(C)=C3C#N)cc12 [BAY-3827]

IC50 [9]: 2380 nM | Ki [10]: 109 nM
SMILES: c1cc(-c2cnn3cc(-c4ccc(OCCN5CCCCC5)cc4)cnc23)ccn1 [DORSOMORPHIN]

IC50 [9]: 40 nM
SMILES: CCN(CC)CCNC(=O)c1c(C)[nH]c(/C=C2\C(=O)Nc3ccc(F)cc32)c1C [SUNITINIB]
